From patent US10759781B2, “Substituted guanidine derivatives” (UBE INDUSTRIES, LTD., priority 2015, dated 2020)
Counter-ions that a name gives are not always drawn.

Legend:
Rat Plasma VAP-1 = molecular target: T1, Rat Plasma VAP-1 (Rattus norvegicus, UniProt O08590); experiment: (Ex vivo) rat plasma VAP-1 inhibition test after oral administration of the compound; assay type: in vivo; conditions: 3 hours after oral administration, SD male rats, read-out: inhibition ratio (plasma VAP-1, ex vivo)
T1 construct: from tissue; host or cells: plasma of SD male rats (7-12 weeks old) after oral dosing
T1 sequence (O08590 28-763 limits assumed): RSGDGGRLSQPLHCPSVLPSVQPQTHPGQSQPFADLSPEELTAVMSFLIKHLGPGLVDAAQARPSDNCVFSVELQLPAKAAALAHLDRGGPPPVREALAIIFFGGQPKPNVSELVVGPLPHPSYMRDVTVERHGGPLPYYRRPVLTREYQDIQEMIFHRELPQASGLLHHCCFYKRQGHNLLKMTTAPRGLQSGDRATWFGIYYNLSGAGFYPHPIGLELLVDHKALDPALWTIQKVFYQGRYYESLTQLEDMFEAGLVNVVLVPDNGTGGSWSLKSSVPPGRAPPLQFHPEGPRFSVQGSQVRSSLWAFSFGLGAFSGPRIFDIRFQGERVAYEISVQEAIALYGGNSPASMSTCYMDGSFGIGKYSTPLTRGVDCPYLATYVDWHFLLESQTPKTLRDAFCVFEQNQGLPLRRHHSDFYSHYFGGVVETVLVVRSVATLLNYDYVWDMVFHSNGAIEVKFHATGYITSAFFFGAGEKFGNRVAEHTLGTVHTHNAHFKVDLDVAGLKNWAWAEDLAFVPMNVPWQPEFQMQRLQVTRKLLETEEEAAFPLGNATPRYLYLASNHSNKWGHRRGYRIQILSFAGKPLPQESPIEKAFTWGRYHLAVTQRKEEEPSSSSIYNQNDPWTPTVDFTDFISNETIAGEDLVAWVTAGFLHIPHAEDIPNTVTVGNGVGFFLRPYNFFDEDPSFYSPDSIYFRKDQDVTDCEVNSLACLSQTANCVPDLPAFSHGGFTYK
Description: (Ex Vivo) Rat Plasma VAP-1 Inhibition Test after Oral Administration of the Compound
The compound was orally administered (0.3-10 mg/kg) to 7-12 week old SD male rats in the non-fasting state. Under anesthesia, the blood was collected in heparin tubes from the jugular vein before the administration and 3, 8 and 24 hours after the administration. The blood was centrifuged at 14000 rpm for 10 minutes to get plasma. The VAP-1 enzyme activity in the plasma was measured by radiochemical enzyme assay.
The radiochemical enzyme assay was conducted by modifying the method of P. H. Yu et al. (Diabetologia 40 1243 (1997)). ^14C-benzylamine (2.5 μM) was added to the obtained plasma, and was incubated at 37° C. for 3 hours. The reaction was terminated by the addition of 100 μL of 2 M citric acid solution to the reaction solution. The oxidative product was extracted using a toluene/ethyl acetate mixture and the radioactivity was measured with a liquid scintillation counter. The inhibition ratio of the compound was calculated using the following equation. Inhibition ratio={1−[Plasma VAP-1 activity after administration of the compound]/[Plasma VAP-1 activity before administration]}×100

Human VAP-1 enzyme = molecular target: T2, Human VAP-1 enzyme (Homo sapiens, UniProt Q16853); experiment: Human VAP-1 enzyme inhibition test; assay type: biochemical; conditions: 1 h; compound 30 nM; 14C-benzylamine 100 μM; read-out: inhibition ratio (human VAP-1 enzyme)
T2 construct: purchased R&D Systems, Inc
T2 sequence (Q16853 1-763): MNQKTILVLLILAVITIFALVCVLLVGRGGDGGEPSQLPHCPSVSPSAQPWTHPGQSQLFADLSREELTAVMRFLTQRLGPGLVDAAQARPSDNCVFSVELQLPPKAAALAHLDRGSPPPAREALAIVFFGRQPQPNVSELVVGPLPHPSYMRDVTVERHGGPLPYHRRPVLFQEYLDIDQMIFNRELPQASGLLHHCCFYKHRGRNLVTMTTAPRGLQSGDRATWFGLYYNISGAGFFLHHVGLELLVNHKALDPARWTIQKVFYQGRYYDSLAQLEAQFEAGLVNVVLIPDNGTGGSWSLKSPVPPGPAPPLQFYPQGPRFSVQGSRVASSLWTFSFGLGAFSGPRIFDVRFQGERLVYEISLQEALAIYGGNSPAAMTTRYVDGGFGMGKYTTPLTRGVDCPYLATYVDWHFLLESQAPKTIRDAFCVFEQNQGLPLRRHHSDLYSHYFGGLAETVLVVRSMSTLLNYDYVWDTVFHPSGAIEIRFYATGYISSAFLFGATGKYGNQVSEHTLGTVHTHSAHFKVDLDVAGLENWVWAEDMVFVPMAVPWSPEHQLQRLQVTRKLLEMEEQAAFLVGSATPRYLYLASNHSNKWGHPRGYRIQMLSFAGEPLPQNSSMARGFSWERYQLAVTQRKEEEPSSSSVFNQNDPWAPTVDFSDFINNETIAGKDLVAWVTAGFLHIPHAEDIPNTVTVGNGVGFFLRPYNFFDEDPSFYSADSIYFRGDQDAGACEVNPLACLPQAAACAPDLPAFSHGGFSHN
Procedure, shortened: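 Activity measured as radioactive oxidation product of 14C-benzylamine (100 μM final), extracted with toluene/ethyl acetate after citric acid stop and scintillation-counted. Enzyme (recombinant human VAP-1) first exposed to compound 20 min at room temperature, reaction then 1 h at 37 °C. Percent inhibition versus DMSO control.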

[1] = test system: Human normal hepatic sinusoid-like microvascular endothelial cells; assay type: cell-based; conditions: 2 days, 300 nM
Description: The Cytotoxicity Inhibition Test in Human Normal Hepatic Sinusoid-Like Microvascular Endothelial Cells
(§1) Human normal hepatic sinusoid-like microvascular endothelial cells were plated at 6000 cells/well in a collagen-coated 96-well culture plate. After one day of culture, the medium at each well was completely removed by aspiration and replaced with 50 μL of the compound solution diluted with the basal medium. The basal medium containing 0.1% DMSO was added to control wells. Following, the plate was incubated in CO2 incubator for 30 minutes. Fifty microliter of 2 mM methylamine diluted with the basal medium was added (final concentration 1 mM) to each negative control well (0% inhibition) as well as the compound-containing well, and 50 μL of the basal medium was added to each positive control well (100% inhibition). The plate was incubated in CO2 incubator for 2 days. Ten microliter of CCK-8 was added to each well and the mixtures were incubated in a plate incubator at 37° C. for approximately 2 hours after stirring with a plate shaker. The absorbance of the mixtures at 450 nm was measured with a multiplate reader. The cytotoxicity inhibition ratio of the compound was calculated from the following equation. Inhibition ratio={[Average absorbance of the compound-containing wells]−[Average absorbance of negative control wells]}/{[Average absorbance of positive control wells]−[Average absorbance of negative control wells]}×100

[2] = test system: Human normal glomerular microvascular endothelial cells; assay type: cell-based; conditions: 2 days, 100 nM
Description: The Cytotoxicity Inhibition Test in Human Normal Glomerular Microvascular Endothelial Cells
as §1, with “glomerular” for “hepatic sinusoid-like”

Row | Structure (SMILES) | inhibition in vivo at 0.3 mg/kg (Rat Plasma VAP-1) [%] | inhibition at 0.03 µM (Human VAP-1 enzyme) [%] | cytotoxicity inhibition ratio [1] [%] | cytotoxicity inhibition ratio [2] [%]
1 | CS(=O)(=O)N1CC(ON=C2CN(c3ncc(-c4cccc(COC(=O)NC(=N)N)c4F)cn3)C2)C1 [Example 141, 2-Fluoro-3-{2-[3-({[1-(methylsulfonyl)azetidin-3-yl]oxy}imino)azetidin-1-yl]pyrimidin-5-yl}benzyl carbamimidoylcarbamate] | ≥ 50 | ≥ 50 | ≥ 50 | ≥ 50
2 | CON=C1CN(c2ncc(-c3cccc(COC(=O)NC(=N)N)c3F)cc2C)C1 [Example 42, 2-Fluoro-3-{6-[3-(methoxyimino)azetidin-1-yl]-5-methylpyridin-3-yl}benzyl carbamimidoylcarbamate] | ≥ 50 | ≥ 50 |  | 
3 | N=C(N)NC(=O)OCc1cccc(-c2cnc(N3CC(=NO)C3)nc2)c1F [Example 70, 2-Fluoro-3-{2-[3-(hydroxyimino)azetidin-1-yl]pyrimidin-5-yl}benzyl carbamimidoylcarbamate] | ≥ 50 | ≥ 50 |  | 
4 | N=C(N)NC(=O)OCc1cccc(-c2cnc(N3CCC(=NOCc4cc[nH]n4)CC3)nc2)c1F [Example 171, 3-[2-(4-{[(1H-pyrazol-3-yl)methoxy]imino}piperidin-1-yl)pyrimidin-5-yl]-2-fluorobenzyl carbamimidoylcarbamate] | ≥ 50 | ≥ 50 |  | 
5 | N=C(N)NC(=O)OCc1cccc(-c2cnc(N3CCC(=NOCC(CO)CO)CC3)nc2)c1F [Example 97, 2-Fluoro-3-[2-(4-{[3-hydroxy-2-(hydroxymethyl)propoxy]imino}piperidin-1-yl)pyrimidin-5-yl]benzyl carbamimidoylcarbamate] | ≥ 50 | ≥ 50 |  | 
6 | CCON=C1CN(c2ncc(-c3cccc(COC(=O)NC(=N)N)c3F)cn2)C1 [Example 2, 3-{2-[3-(Ethoxyimino)azetidin-1-yl]pyrimidin-5-yl}-2-fluorobenzyl carbamimidoylcarbamate] | ≥ 50 |  | ≥ 50 | ≥ 50
7 | CC(O)CON=C1CCN(c2ncc(-c3cccc(COC(=O)NC(=N)N)c3F)cn2)CC1 (stereo not drawn) [Example 90, 2-Fluoro-3-(2-{4-[(2-hydroxypropoxy)imino]piperidin-1-yl}pyrimidin-5-yl)benzyl carbamimidoylcarbamate] | ≥ 50 | ≥ 50 |  | 
8 | N=C(N)NC(=O)OCc1cccc(-c2cnc(N3CCC(=NO)CC3)nc2)c1F [Example 105, 2-Fluoro-3-{2-[4-(hydroxyimino)piperidin-1-yl]pyrimidin-5-yl}benzyl carbamimidoylcarbamate hydrochloride] | ≥ 50 | ≥ 50 |  | 
9 | CC(CO)(CO)CON=C1CCN(c2ncc(-c3cccc(COC(=O)NC(=N)N)c3F)cn2)CC1 [Example 98, 2-Fluoro-3-[2-(4-{[3-hydroxy-2-(hydroxymethyl)-2-methylpropoxy]imino}piperidin-1-yl)pyrimidin-5-yl]benzyl carbamimidoylcarbamate] | ≥ 50 | ≥ 50 |  | 
10 | N=C(N)NC(=O)OCc1cccc(-c2cnc(N3CCC(=NOCCCO)CC3)nc2)c1F [Example 86, 2-Fluoro-3-(2-{4-[(3-hydroxypropoxy)imino]piperidin-1-yl}pyrimidin-5-yl)benzyl carbamimidoylcarbamate hydrochloride] | ≥ 50 | ≥ 50 |  | 
11 | N=C(N)NC(=O)OCc1cccc(-c2cnc(N3CCC(=NOCCOC4CCCCO4)CC3)nc2)c1F (stereo not drawn) [Example 57, 2-Fluoro-3-{2-[4-({2-[(tetrahydropyran-2-yl)oxy]ethoxy}imino)piperidin-1-yl]pyrimidin-5-yl}benzyl carbamimidoylcarbamate] | ≥ 50 | ≥ 50 |  | 
12 | N=C(N)NC(=O)OCc1cccc(-c2cnc(N3CC(=NOCCF)C3)nc2)c1F [Example 5, 2-Fluoro-3-(2-{3-[(2-fluoroethoxy)imino]azetidin-1-yl}pyrimidin-5-yl)benzyl carbamimidoylcarbamate] | ≥ 50 |  | ≥ 50 | ≥ 50
13 | N=C(N)NC(=O)OCc1cccc(-c2cnc(N3CCC(=NOCCCC(=O)O)CC3)nc2)c1F [Example 153, 4-[({1-[5-(3-{[(Carbamimidoylcarbamoyl)oxy]methyl}-2-fluorophenyl)pyrimidin-2-yl]piperidin-4-ylidene}amino)oxy]butanoic acid] | ≥ 50 | ≥ 50 |  | 
